Our source for the ID50 values is ChEMBL document CHEMBL1158148, “Characterization of an irritant 4-deoxyphorbol diester from Euphorbia tirucalli” (J Nat Prod, 1979).

Bounds are passed on as bounds.

For data set [1], the species on record is Mus musculus. Kind of data set: Toxicity against Swiss-Webster mouse assessed as irritation in ear per 5 ul after 4 hrs. Particulars: in vivo, topical_or_ocular. It is filed as organism-based.
The species named for data set [2] is Mus musculus. Kind of data set: Toxicity against Swiss-Webster mouse assessed as irritation in ear per 5 ul after 24 hrs. It is filed as organism-based. Particulars: in vivo, topical_or_ocular.

Regarding `CC1=C[C@H]2[C@@]3(O)[C@H](C)[C@@H](OC(=O)c4ccccc4)[C@]4(OC(=O)c5ccccc5)[C@H]([C@@H]3C=C(CO)C[C@]2(O)C1=O)C4(C)C`, the ID50 in the data set filed under Mus musculus [1] amounted to 0.6 µg; in the data set listed under Mus musculus [2], 0.83 µg.

Take `CCC/C=C/C=C\C(=O)O[C@@H]1[C@@H](C)[C@]2(O)[C@@H]3C=C(C)C(=O)[C@H]3CC(CO)=C[C@H]2[C@@H]2C(C)(C)[C@]12OC(C)=O`: the ID50 was 0.04 µg in the data set filed under Mus musculus [1] and 0.07 µg in the data set filed under Mus musculus [2].

With `CCC/C=C/C=C\C(=O)O[C@@H]1[C@@H](C)[C@]2(O)[C@@H]3C=C(C)C(=O)[C@@H]3CC(CO)=C[C@H]2[C@@H]2C(C)(C)[C@]12O`, the ID50 in the data set filed under Mus musculus [1] and in the data set listed under Mus musculus [2] was above 100 µg each time.

With `CCCCCCCCCCCCCC(=O)O[C@@H]1[C@@H](C)[C@@]2(O)[C@@H](C=C(CO)C[C@]3(O)C(=O)C(C)=C[C@@H]23)[C@@H]2C(C)(C)[C@]12OC(C)=O` [PHORBOL MYRISTATE ACETATE], the ID50 in the data set filed under Mus musculus [1] is 0.04 µg; in the data set listed under Mus musculus [2], 0.05 µg.
